Among the data in ChEMBL document CHEMBL1153760, “Identification and structure-activity relationships of chromene-derived selective estrogen receptor modulators for treatment of postmenopausal symptoms” (J Med Chem, 2009) are inhibition in vivo and IC50 values, retold here.

The species entered for assay [1] is Rattus norvegicus. Description: animal or person. Type of assay: functional. The note with it: Uterus, 72 h, route oral.
Assay [2] deals with T1, Estrogen receptor (Homo sapiens, UniProt P03372).
T1 sequence (P03372 whole entry): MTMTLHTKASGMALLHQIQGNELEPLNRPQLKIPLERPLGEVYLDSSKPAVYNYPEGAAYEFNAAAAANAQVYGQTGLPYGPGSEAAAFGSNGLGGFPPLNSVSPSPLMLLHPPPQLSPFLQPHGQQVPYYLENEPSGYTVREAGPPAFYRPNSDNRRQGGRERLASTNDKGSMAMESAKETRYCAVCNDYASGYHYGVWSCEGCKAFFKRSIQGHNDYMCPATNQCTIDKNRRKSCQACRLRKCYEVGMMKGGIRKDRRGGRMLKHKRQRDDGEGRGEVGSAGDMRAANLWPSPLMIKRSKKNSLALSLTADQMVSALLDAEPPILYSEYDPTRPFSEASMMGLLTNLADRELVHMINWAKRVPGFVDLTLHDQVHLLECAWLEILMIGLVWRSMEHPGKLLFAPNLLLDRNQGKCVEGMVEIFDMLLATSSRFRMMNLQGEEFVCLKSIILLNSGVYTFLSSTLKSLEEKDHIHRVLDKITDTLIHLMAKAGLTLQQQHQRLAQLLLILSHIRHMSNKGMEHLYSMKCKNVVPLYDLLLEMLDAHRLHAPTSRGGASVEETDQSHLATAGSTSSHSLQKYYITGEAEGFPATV
Description: Antagonist activity at estrogen receptor in human Ishikawa cells assessed as 17-beta-estradiol-induced alkaline phosphatase activity after 3 days by chemiluminescence assay. It is filed as functional, cell-based.

Assay [3] addresses Estrogen receptor beta (Homo sapiens, UniProt Q92731). Description: Inhibition of fluormone ES2 binding to estrogen receptor beta after 1 hr by fluorescence polarization assay.
For assay [4], the target named is T1, Estrogen receptor. Description: Displacement of radiolabeled estrogen from estrogen receptor alpha by scintillation counting.

Sequence of Estrogen receptor beta (Q92731 whole entry): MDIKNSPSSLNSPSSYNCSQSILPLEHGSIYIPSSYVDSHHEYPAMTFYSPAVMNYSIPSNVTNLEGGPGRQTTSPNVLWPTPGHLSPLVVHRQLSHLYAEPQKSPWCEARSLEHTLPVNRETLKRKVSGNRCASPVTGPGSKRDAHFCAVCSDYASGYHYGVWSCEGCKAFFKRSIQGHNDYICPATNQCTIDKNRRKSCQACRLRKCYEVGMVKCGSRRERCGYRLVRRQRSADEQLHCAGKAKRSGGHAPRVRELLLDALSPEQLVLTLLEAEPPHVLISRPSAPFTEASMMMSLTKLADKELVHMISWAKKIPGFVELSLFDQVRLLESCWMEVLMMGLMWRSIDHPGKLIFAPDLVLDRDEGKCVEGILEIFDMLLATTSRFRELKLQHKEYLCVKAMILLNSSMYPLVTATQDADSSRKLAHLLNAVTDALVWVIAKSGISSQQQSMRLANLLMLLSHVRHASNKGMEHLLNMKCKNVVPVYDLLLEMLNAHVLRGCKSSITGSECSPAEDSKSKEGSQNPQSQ

Take `Oc1ccc2c(c1)O[C@@H](c1ccc(OCCN3CCOCC3)cc1)C1=C2CCOc2cc(O)ccc21`: in assay [1], the inhibition in vivo – broadly, the change of the read-out against control, counted positive when it falls – at 1 mg/kg was 0%. In addition, the IC50 – broadly, the concentration that inhibits the measured activity by half – was over 10000 nM in assay [2], 11 nM in assay [3] and 10 nM in assay [4].
With `Oc1ccc2c(c1)OCCC1=C2[C@H](c2ccc(OCCN3CCCCCC3)cc2)Oc2cc(F)ccc21`, the inhibition in vivo at 1 mg/kg in assay [1] came to 33%. The IC50 in assay [2] amounted to 161 nM; in assay [3], 31 nM; in assay [4], 5 nM.
In the case of `OCCCOc1ccc(C2Oc3cc(O)ccc3C3=C2c2ccc(O)cc2OCC3)cc1` (stereo not drawn), in assay [1], the inhibition in vivo at 1 mg/kg worked out at 0%. The half-inhibitory concentration (IC50) in assay [2] was over 10000 nM; in assay [3] it was 44 nM; in assay [4], 326 nM.
`Oc1ccc2c(c1)OCCC1=C2[C@@H](c2ccc(OCCN3CCCCCC3)cc2)Oc2ccccc21`: in assay [1], the inhibition in vivo at 1 mg/kg was 110%. Besides, the IC50 is 293 nM in assay [2], 125 nM in assay [3] and 11 nM in assay [4].
For `CN(C)CCOc1ccc([C@H]2Oc3cc(O)ccc3C3=C2c2ccc(O)cc2OCC3)cc1` the same measures were 25%, 61 nM, 23 nM and 3.3 nM.
For `O=C1CCC(=O)N1CCOc1ccc([C@H]2Oc3cc(O)ccc3C3=C2c2ccc(O)cc2OCC3)cc1` the same measures were 0%, over 10000 nM, 0.64 nM and 4.8 nM.
Turning to `Oc1ccc2c(c1)O[C@H](c1ccc(OCCN3CCCCCC3)cc1)C1=C2CCOc2cc(O)ccc21`, the inhibition in vivo at 1 mg/kg in assay [1] stood at 60%. In addition, the IC50 in assay [3] worked out at 19 nM.
As to `Oc1ccc2c(c1)O[C@H](c1ccc(OCCN3CCCC3)cc1)C1=C2CCOc2cc(O)ccc21`, in assay [1], the inhibition in vivo at 1 mg/kg was found to be 10%. Also, the concentration for half-maximal inhibition (IC50) in assay [2] turned out to be 10 nM; in assay [3] it was 14 nM; in assay [4] it was 1.2 nM.
`O=C(O)CCOc1ccc([C@H]2Oc3cc(O)ccc3C3=C2c2ccc(O)cc2OCC3)cc1`: the inhibition in vivo at 1 mg/kg in assay [1] was 0%. Also, the IC50 in assay [2] was over 10000 nM; in assay [3] it was 250 nM; in assay [4] it was 120 nM.
On to `Oc1ccc2c(c1)O[C@H](c1ccc(OCCCN3CCCCC3)cc1)C1=C2CCOc2cc(O)ccc21`, for which the inhibition in vivo at 1 mg/kg in assay [1] stood at 23%. The half-maximal inhibitory concentration (IC50) in assay [2] amounted to 420 nM; in assay [3] it was 31 nM; in assay [4], 22 nM.
In the case of `Oc1ccc2c(c1)OCCC1=C2[C@@H](c2ccc(OCCN3CCCCCC3)cc2)Oc2cc(F)ccc21`, the inhibition in vivo at 1 mg/kg in assay [1] worked out at 22%. The IC50 in assay [2] stood at 81 nM; in assay [3], 66 nM; in assay [4], 3.3 nM.
For the compound `Oc1ccc2c(c1)O[C@@H](c1ccc(OCCN3CCCCCC3)cc1)C1=C2CCOc2cc(O)ccc21`, the inhibition in vivo at 1 mg/kg in assay [1] stood at 50%. In assay [3], this compound showed an IC50 of 13.4 nM.
In the case of `Oc1ccc2c(c1)OCCC1=C2[C@H](c2ccc(OCCN3CCCCCC3)cc2)Oc2ccccc21`, the inhibition in vivo at 1 mg/kg in assay [1] was 28%. Moreover, the IC50 was determined as 68 nM in assay [2], 22 nM in assay [3] and 4.5 nM in assay [4].
As for `Oc1ccc2c(c1)OCCC1=C2[C@@H](c2ccc(OCCN3CCCCC3)cc2)Oc2ccccc21`, the inhibition in vivo at 1 mg/kg in assay [1] came to 130%. The IC50 was determined as 76 nM in assay [2], 99 nM in assay [3] and 5.8 nM in assay [4].
As to `Oc1ccc2c(c1)OCCC1=C2[C@H](c2ccc(OCCN3CCCCC3)cc2)Oc2ccccc21`, the inhibition in vivo at 1 mg/kg in assay [1] came to 20%. For the same compound, the half-maximal inhibitory concentration (IC50) in assay [2] is 150 nM; in assay [3], 24 nM; in assay [4], 4.2 nM.
For the compound `O=C1CCC(=O)N1CCCOc1ccc([C@H]2Oc3cc(O)ccc3C3=C2c2ccc(O)cc2OCC3)cc1`, the inhibition in vivo at 1 mg/kg in assay [1] turned out to be 0%. Also, the figures for the 50% inhibitory concentration (IC50) in assay [2], in assay [3] and in assay [4] were over 10000 nM, 12.7 nM and 2.63 nM, respectively.
For the compound `CCN(CC)CCOc1ccc([C@@H]2Oc3cc(F)ccc3C3=C2c2ccc(O)cc2OCC3)cc1`, in assay [1], the inhibition in vivo at 1 mg/kg amounted to 11%. Moreover, the IC50 in assay [2] worked out at 122 nM; in assay [3], 11 nM; in assay [4] it was 7 nM.
For `Oc1ccc2c(c1)O[C@@H](c1ccc(OCCN3CCCCC3)cc1)C1=C2CCOc2cc(O)ccc21` the same measures were 88%, 32 nM, 16 nM and 3.4 nM.
Turning to `Oc1ccc2c(c1)O[C@@H](c1ccc(OCCN3CCCC3)cc1)C1=C2CCOc2cc(O)ccc21`, the inhibition in vivo at 1 mg/kg in assay [1] amounted to 20%. Also, the IC50 turned out to be 165 nM in assay [2], 8.7 nM in assay [3] and 2.5 nM in assay [4].
Take `COC(=O)COc1ccc(C2Oc3cc(O)ccc3C3=C2c2ccc(O)cc2OCC3)cc1` (stereo not drawn): the inhibition in vivo at 1 mg/kg in assay [1] amounted to 0%. Besides, the IC50 was over 10000 nM in assay [2], 16 nM in assay [3] and 4.8 nM in assay [4].
`Oc1ccc2c(c1)O[C@@H](c1ccc(OCCN3CCCCCC3)cc1)C1=C2CCOc2ccccc21`: in assay [1], the inhibition in vivo at 1 mg/kg is 7%. The IC50 in assay [2] was determined as 144 nM; in assay [3], 41 nM; in assay [4] it was 4 nM.
The corresponding values for `CN(C)CCOc1ccc([C@H]2Oc3cc(O)ccc3C3=C2c2ccccc2OCC3)cc1` are 23%, 8990 nM, 205 nM and 180 nM.
For the compound `COc1ccc2c(c1)O[C@@H](c1ccc(OCCN3CCCCC3)cc1)C1=C2CCOc2cc(OC)ccc21`, the inhibition in vivo at 1 mg/kg in assay [1] worked out at 7%. Besides, the half-inhibitory concentration (IC50) in assay [2], in assay [3] and in assay [4] was over 10000 nM throughout.
On to `Oc1ccc2c(c1)O[C@@H](c1ccc(OCCN3CCSCC3)cc1)C1=C2CCOc2cc(O)ccc21`, for which the inhibition in vivo at 1 mg/kg in assay [1] is 0%. In addition, the IC50 is over 10000 nM in assay [2], 390 nM in assay [3] and 111 nM in assay [4].
On to `Oc1ccc2c(c1)O[C@@H](c1ccc(OCCCN3CCCCC3)cc1)C1=C2CCOc2cc(O)ccc21`, for which, in assay [1], the inhibition in vivo at 1 mg/kg amounted to 15%. For the same compound, the IC50 in assay [2] amounted to 590 nM; in assay [3], 19 nM; in assay [4], 55 nM.
For the compound `CN1CCN(CCOc2ccc([C@H]3Oc4cc(O)ccc4C4=C3c3ccc(O)cc3OCC4)cc2)CC1`, in assay [1], the inhibition in vivo at 1 mg/kg came out at 30%. Further, the results for the concentration for half-maximal inhibition (IC50) in assay [2], in assay [3] and in assay [4] were 90 nM, 86 nM and 8.7 nM, respectively.
In the case of `Oc1ccc2c(c1)OC(c1ccc(OCCN3CCCCC3)cc1)C1=C2CCOc2cc(O)ccc21` (stereo not drawn), the inhibition in vivo at 1 mg/kg in assay [1] was 77%. The figures for the IC50 in assay [2], in assay [3] and in assay [4] were 8 nM, 31 nM and 13 nM, respectively.
On to `O=C(O)CCOc1ccc([C@@H]2Oc3cc(O)ccc3C3=C2c2ccc(O)cc2OCC3)cc1`, for which the inhibition in vivo at 1 mg/kg in assay [1] amounted to 0%. Also, the IC50 in assay [2] was over 10000 nM; in assay [3] it was 44 nM; in assay [4] it was 580 nM.
In the case of `Oc1ccc2c(c1)O[C@H](c1cccc(OCCN3CCSCC3)c1)C1=C2CCOc2cc(O)ccc21`, the IC50 in assay [2] was over 10000 nM; in assay [3], over 1000 nM; in assay [4] it was over 1000 nM.
Consider `Oc1ccc2c(c1)O[C@@H](c1cccc(OCCN3CCCCC3)c1)C1=C2CCOc2cc(O)ccc21`, for which, in assay [1], the inhibition in vivo at 1 mg/kg worked out at 0%. The values for the concentration for half-maximal inhibition (IC50) in assay [2], in assay [3] and in assay [4] were over 10000 nM, 200 nM and 190 nM, respectively.
With `CCN(CC)CCOc1ccc([C@H]2Oc3ccccc3C3=C2c2ccc(O)cc2OCC3)cc1`, the inhibition in vivo at 1 mg/kg in assay [1] worked out at 80%. Also, the figures for the concentration for half-maximal inhibition (IC50) in assay [2], in assay [3] and in assay [4] were 113 nM, 108 nM and 5 nM, respectively.
Regarding `Oc1ccc2c(c1)OC(c1ccc(OCCN3CCCCC3)cc1)C1=C2CCCOc2cc(O)ccc21` (single isomer, unassigned; (+)), in assay [1], the inhibition in vivo at 1 mg/kg worked out at 33%. In addition, the concentration for half-maximal inhibition (IC50) in assay [2] is 121 nM; in assay [3], 77 nM; in assay [4] it was 23 nM.
`O=C1CCC(=O)N1CCOc1ccc([C@@H]2Oc3cc(O)ccc3C3=C2c2ccc(O)cc2OCC3)cc1`: the inhibition in vivo at 1 mg/kg in assay [1] was determined as 0%. In addition, the IC50 is over 10000 nM in assay [2], 18.6 nM in assay [3] and 6.2 nM in assay [4].
Regarding `CN1CCN(CCOc2cccc([C@@H]3Oc4cc(O)ccc4C4=C3c3ccc(O)cc3OCC4)c2)CC1`, the IC50 in assay [2] was over 10000 nM; in assay [3] it was over 1000 nM; in assay [4] it was over 1000 nM.
Turning to `CN(C)CCOc1ccc([C@H]2Oc3ccccc3C3=C2c2ccc(O)cc2OCC3)cc1`, in assay [1], the inhibition in vivo at 1 mg/kg worked out at 55%. For the same compound, the half-maximal inhibitory concentration (IC50) in assay [3] worked out at 105 nM.
`CN1CCN(CCOc2cccc([C@H]3Oc4cc(O)ccc4C4=C3c3ccc(O)cc3OCC4)c2)CC1`: the concentration for half-maximal inhibition (IC50) in assay [2] is over 10000 nM; in assay [3], over 1000 nM; in assay [4], over 1000 nM.
For the compound `Oc1ccc2c(c1)O[C@@H](c1cccc(OCCN3CCSCC3)c1)C1=C2CCOc2cc(O)ccc21`, the IC50 in assay [2] was over 10000 nM; in assay [3], over 1000 nM; in assay [4], over 1000 nM.
